Data published in paper PMC12169608, “Peptidomimetic Phenoxymethyl Ketone Warheads as Potent Dual-Mode Inhibitors against SARS-CoV‑2 M^pro and Cathepsin” (Journal of Medicinal Chemistry, 2025).
Values after ≈ are worked out from the molar mass of the structure shown. Like-named read-outs stand apart in the source and are kept apart here.

Legend:
[1] = biological target: human cathepsin B (hCTSB) (Homo sapiens, UniProt P07858); assay: hCTSB biochemical assay
[2] = biological target: mouse cathepsin L (mCTSL) (Mus musculus, UniProt P06797); assay: mCTSL biochemical assay; settings: read-out: pIC50 (mouse CTSL) (converted)
mouse cathepsin L (mCTSL), sequence (P06797 114-334): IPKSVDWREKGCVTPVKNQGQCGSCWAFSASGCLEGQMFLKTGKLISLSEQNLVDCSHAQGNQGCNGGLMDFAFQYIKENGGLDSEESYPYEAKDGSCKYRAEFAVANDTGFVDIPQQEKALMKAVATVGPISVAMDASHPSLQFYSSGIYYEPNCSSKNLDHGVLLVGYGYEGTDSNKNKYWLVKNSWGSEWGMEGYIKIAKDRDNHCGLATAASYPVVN

hamster CTSL = hamster CTSL (Mesocricetus auratus, UniProt Q812A7); assay: hamster CTSL biochemical assay
hamster CTSL, sequence (Q812A7 entry or part of it): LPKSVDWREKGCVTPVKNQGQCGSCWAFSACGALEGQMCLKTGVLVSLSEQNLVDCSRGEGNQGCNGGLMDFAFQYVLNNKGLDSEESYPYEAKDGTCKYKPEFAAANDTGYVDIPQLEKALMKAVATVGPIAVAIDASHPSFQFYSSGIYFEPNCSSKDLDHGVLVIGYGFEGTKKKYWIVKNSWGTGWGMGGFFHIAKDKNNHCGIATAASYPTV

[3] = system: luciferase-expressing VSV (ΔG) pseudotyped with Spike from SARS-CoV-2; assay: microbe, parasite or virus in culture; assay type: cell-based; settings: Vesicular stomatitis virus, Vero C1008, read-out: Entry reporter assay pEC50 (converted)
SARS-CoV-2 = assay: microbe, parasite or virus in culture; assay type: cell-based
Calpain-1 = biological target: T1, Calpain-1 (Homo sapiens, UniProt P07384); assay: Protease panel: Calpain-1; assay type: biochemical
T1 construct: erythrocytes; tissue Eurofins Discovery (assay service); host or cells: human erythrocytes
T1 sequence (P07384 1-714): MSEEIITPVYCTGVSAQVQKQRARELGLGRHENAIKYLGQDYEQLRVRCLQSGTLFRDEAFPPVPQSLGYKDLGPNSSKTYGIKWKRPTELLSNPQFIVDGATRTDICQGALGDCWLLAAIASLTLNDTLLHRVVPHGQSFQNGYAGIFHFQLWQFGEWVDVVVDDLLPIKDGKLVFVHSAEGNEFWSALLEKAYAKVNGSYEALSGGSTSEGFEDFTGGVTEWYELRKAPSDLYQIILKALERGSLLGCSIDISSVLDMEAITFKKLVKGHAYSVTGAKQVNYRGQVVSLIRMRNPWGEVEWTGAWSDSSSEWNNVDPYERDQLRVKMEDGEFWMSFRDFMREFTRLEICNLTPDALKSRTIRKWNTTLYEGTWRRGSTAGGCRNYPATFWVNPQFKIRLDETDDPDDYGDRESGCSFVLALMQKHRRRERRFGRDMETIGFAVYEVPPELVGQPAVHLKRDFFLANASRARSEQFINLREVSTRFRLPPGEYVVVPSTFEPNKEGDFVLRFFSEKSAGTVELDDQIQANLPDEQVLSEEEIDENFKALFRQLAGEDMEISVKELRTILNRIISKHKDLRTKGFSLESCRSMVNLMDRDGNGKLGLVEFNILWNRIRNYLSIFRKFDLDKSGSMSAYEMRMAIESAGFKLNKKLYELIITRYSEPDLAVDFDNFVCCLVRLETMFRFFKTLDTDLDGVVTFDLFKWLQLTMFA
T1 sequence (P04632 1-268 partner): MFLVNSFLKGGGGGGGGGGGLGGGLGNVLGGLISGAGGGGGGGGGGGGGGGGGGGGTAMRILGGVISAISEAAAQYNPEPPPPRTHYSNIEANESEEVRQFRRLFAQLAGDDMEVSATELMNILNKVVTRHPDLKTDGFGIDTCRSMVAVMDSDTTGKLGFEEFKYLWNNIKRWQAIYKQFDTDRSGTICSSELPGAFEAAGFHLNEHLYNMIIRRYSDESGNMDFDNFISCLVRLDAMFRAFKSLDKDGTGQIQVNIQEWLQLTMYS

Caspase 2 = biological target: T2, Caspase 2 (Homo sapiens, UniProt P42575); assay: Protease panel: Caspase 2; assay type: biochemical
T2 construct: purchased Eurofins Discovery (assay service); host or cells: E. coli
T2 sequence (P42575 170-325 limits assumed): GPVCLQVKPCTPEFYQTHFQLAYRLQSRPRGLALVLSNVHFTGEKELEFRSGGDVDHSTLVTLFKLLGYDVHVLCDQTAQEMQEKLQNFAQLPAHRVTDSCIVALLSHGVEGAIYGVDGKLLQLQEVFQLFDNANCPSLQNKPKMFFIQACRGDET
T2 sequence (P42575 348-452 limits assumed): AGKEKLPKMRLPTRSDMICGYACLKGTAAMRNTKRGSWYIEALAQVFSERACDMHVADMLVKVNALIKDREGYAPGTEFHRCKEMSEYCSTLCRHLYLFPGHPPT

Cathepsin D = biological target: T3, Cathepsin D (Homo sapiens, UniProt P07339); assay: Protease panel: Cathepsin D; assay type: biochemical
T3 construct: Human liver; tissue Eurofins Discovery (assay service); host or cells: human liver
T3 sequence (P07339 65-412): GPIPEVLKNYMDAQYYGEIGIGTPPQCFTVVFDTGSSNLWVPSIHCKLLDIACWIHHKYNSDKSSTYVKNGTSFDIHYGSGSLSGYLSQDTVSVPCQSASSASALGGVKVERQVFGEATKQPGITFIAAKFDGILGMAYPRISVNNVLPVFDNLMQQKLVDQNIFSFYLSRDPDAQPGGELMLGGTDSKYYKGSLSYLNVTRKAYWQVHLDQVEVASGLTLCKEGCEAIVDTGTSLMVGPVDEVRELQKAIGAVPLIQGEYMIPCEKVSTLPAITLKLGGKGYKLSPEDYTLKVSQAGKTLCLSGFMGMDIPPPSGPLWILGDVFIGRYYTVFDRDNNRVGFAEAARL

Neutrophil Elastase 2 = biological target: T4, Neutrophil Elastase 2 (Homo sapiens, UniProt P08246); assay: Protease panel: Neutrophil Elastase 2; assay type: biochemical
T4 construct: neutrophils; tissue Eurofins Discovery (assay service); host or cells: human neutrophils
T4 sequence (P08246 30-267): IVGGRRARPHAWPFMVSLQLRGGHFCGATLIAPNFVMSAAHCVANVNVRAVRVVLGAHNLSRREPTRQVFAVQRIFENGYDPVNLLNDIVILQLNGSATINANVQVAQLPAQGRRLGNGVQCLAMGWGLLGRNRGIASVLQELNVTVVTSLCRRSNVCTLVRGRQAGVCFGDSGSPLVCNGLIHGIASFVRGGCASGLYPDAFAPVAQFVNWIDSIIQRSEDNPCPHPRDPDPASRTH

physchem [4] = settings: pH 7.4
physchem [5] = settings: pH 7.4; remark: listed apart in the source
in vitro [6] = settings: mouse, plasma, mouse plasma protein binding
in vitro [7] = settings: hamster, hepatocytes; for hepatocyte CLint at 2 h, 4 µM: CLint (hamster hepatocytes + ritonavir 4:1); for hepatocyte CLint at 2 h, 2 µM: CLint (hamster hepatocytes)
in vitro [8] = settings: human, hepatocytes
in vitro [9] = settings: hamster, microsomes, pH 7.4
in vitro [10] = settings: human, microsomes, pH 7.4
trypsin = assay: Protease panel: trypsin
[11] = Mouse hepatocyte stability; settings: mouse, cryopreserved hepatocytes
[12] = Human hepatocyte stability; settings: cryopreserved hepatocytes
[13] = Human liver microsomal stability; settings: microsomes, pH 7.4
[14] = Hamster liver microsomal stability; settings: microsomes, pH 7.4
[15] = Severe acute respiratory syndrome coronavirus 2, Vero C1008, read-out: SARS-CoV-2 CPE reduction assay pEC50 (converted)
[16] = % remaining at 120 min (hamster hepatocytes, compound/ritonavir 1:1)
[17] = % remaining at 120 min (hamster hepatocytes, compound/ritonavir 2:1)
[18] = CLint (hamster hepatocytes, compound/ritonavir 1:1)
[19] = CLint (hamster hepatocytes, compound/ritonavir 2:1)
[20] = t1/2 (hamster hepatocytes, compound/ritonavir 1:1)
[21] = t1/2 (hamster hepatocytes, compound/ritonavir 2:1)

| Structure (SMILES) | hCTSB biochemical assay pIC50 [1] | IC50 [2] [nM] | pIC50 (hamster CTSL) (hamster CTSL) | EC50 [3] [nM] | EC50 (SARS-CoV-2; [15]) [nM] | inhibition at 10 µM (Calpain-1) [%] | inhibition at 10 µM (Caspase 2) [%] | inhibition at 10 µM (Cathepsin D) [%] | inhibition at 10 µM (Neutrophil Elastase 2) [%] | logD at 1 h (physchem [4]) | solubility kinetic at 24 h (physchem [5]) [µM] | fraction unbound at 3 h, 2 µM (in vitro [6]; fraction bound (Fb)) | fraction unbound at 3 h, 2 µM (in vitro [6]; fraction unbound (Fu)) | remaining at 2 h, 1 µM (in vitro [7]; [16]) [%] | remaining at 2 h, 1 µM (in vitro [7]; [17]) [%] | hepatocyte CLint at 2 h, 4 µM (in vitro [7]) [µL/min/1e6 cells] | hepatocyte CLint at 2 h, 2 µM (in vitro [7]) [µL/min/1e6 cells] | hepatocyte CLint at 1 µM (in vitro [7]; [18]) [µL/min/1e6 cells] | hepatocyte CLint at 1 µM (in vitro [7]; [19]) [µL/min/1e6 cells] | half-life at 1 µM (in vitro [7]; [20]) [min] | also measured |
| --- | --- | --- | --- | --- | --- | --- | --- | --- | --- | --- | --- | --- | --- | --- | --- | --- | --- | --- | --- | --- | --- |
| COc1cccc2[nH]c(C(=O)N[C@@H](Cc3cccc(F)c3)C(=O)N[C@@H](C[C@@H]3CCNC3=O)C(=O)COc3c(F)c(F)c(CO)c(F)c3F)cc12 [compound 1, N-((S)-3-(3-Fluorophenyl)-1-oxo-1-(((S)-3-oxo-1-((S)-2-oxopyrrolidin-3-yl)-4-(2,3,5,6-tetrafluoro-4-(hydroxymethyl)phenoxy)butan-2-yl)amino)propan-2-yl)-4-methoxy-1H-indole-2-carboxamide] | 6.36 | 83.2 | 8.34 ± 0.09 | 2510 | 129 | 3 | 11 | 8 | 2 | 1.65 | 18 (≈ 12.6 µg/mL) | 0.0194 | 0.0194 | 2.51 | 0.56 | 77.1 | 87.6 | 31.4 | 48.1 | 22.1 | EC50 (SARS-CoV-2; Severe acute respiratory syndrome coronavirus 2, Vero C1008, read-out: EC50 (CPE)): 130 nM; half-life at 2 h, 4 µM (in vitro [7]; t1/2 (hamster hepatocytes + ritonavir 4:1)): 9 min; half-life at 1 µM (in vitro [7]; [21]): 14.4 min; hepatocyte CLint at 2 h, 2 µM (in vitro [8]): 12.5 µL/min/1e6 cells; microsomal CLint at 1 µM (in vitro [9]): 2370 µL/min/mg; remaining at 1 h, 1 µM (in vitro [9]): 0%; microsomal CLint (in vitro [10]): 350 µL/min/mg; remaining at 1 h (in vitro [10]): 0%; Trypsin inhibition at 10 μM (trypsin): -3.4 ± 9.0%; half-life at 1 µM [11]: 9.3 min; half-life at 2 h, 2 µM [12]: 55.5 min; half-life [13]: 4.04 min; half-life at 1 µM [14]: 0.58 min |
| CC(C)(O)c1c(F)c(F)c(OCC(=O)[C@H](C[C@@H]2CCNC2=O)NC(=O)[C@@H]2[C@@H]3[C@H](CN2C(=O)[C@@H](NC(=O)C(F)(F)F)C(C)(C)C)C3(C)C)c(F)c1F [compound 14, (1R,2S,5S)-3-((S)-3,3-Dimethyl-2-(2,2,2-trifluoroacetamido)butanoyl)-6,6-dimethyl-N-((S)-3-oxo-1-((S)-2-oxopyrrolidin-3-yl)-4-(2,3,5,6-tetrafluoro-4-(2-hydroxypropan-2-yl)phenoxy)butan-2-yl)-3-azabicyclo[3.1.0]hexane-2-carboxamide] | < 4.30 | > 50100 | 4.67 ± 0.33 | > 30200 | 39.8 | -7 | 7 | -23 | 4 | 2.52 | 77.2 (≈ 57 µg/mL) | 0.0076 | 0.0076 | 28.8 | 4.42 | 44.7 | 62.1 | 9.3 | 25.4 | 74.5 | hCTSB activity (in words) ([1]; biochemical assay): no hCTSL and hCTSB activity was observed; half-life at 1 µM (in vitro [7]; [21]): 27.2 min; hepatocyte CLint at 2 h, 2 µM (in vitro [8]): 6.6 µL/min/1e6 cells; microsomal CLint at 1 µM (in vitro [9]): 377 µL/min/mg; remaining at 1 h, 1 µM (in vitro [9]): 0.1%; microsomal CLint (in vitro [10]): 40 µL/min/mg; remaining at 1 h (in vitro [10]): 30.2%; Trypsin inhibition at 10 μM (trypsin): 10.2 ± 3.3%; half-life at 1 µM [11]: 15.5 min; half-life at 2 h, 2 µM [12]: 105 min; half-life [13]: 35 min; half-life at 1 µM [14]: 1.73 min |
